Like-named read-outs stand apart in the source and are kept apart here.

In this assay the test system is Phytophthora infestans. It counts as cell-based. The following applies: MTP, absorption 405 nm, 7 days after inoculation, 18° C.

In the case of `O=C(NCCc1ncc(C(F)(F)F)cc1Cl)c1ccccc1C(F)(F)F` [Fluopyram], the Observed efficacy is given as 5% (0.016 ppm) and 5% (0.063 ppm). As for `CCCCCCCCc1c(CC)nc2ncnn2c1N` [5-Ethyl-6-octyl-[1,2,4]triazolo[1,5-a]pyrimidin-7-ylamine], the Observed efficacy (0.25 ppm) is given as 31%.

The values are drawn from patent publication US20110319432A1 (priority 2009, published 2011).
